{"source": "ChEMBL document CHEMBL5725310", "about": "“Substituted imidazo[1,5-α]pyridines and imidazo[1,5-α]pyrazines as LSD1 inhibitors” (2017)", "molecular_target": "Lysine-specific histone demethylase 1A (Homo sapiens, UniProt O60341)", "assay": "Demethylase Biochemical Assay: LANCE LSD1/KDM1A demethylase assay¿10 uL of 1 nM LSD-1 enzyme (ENZO BML-SE544-0050) in the assay buffer (50 mM Tris, pH 7.5, 0.01% Tween-20, 25 mM NaCl, 5 mM DTT) were preincubated for 1 hour at 25° C. with 0.8 uL compound/DMSO dotted in black 384 well polystyrene plates. Reactions were started by addition of 10 uL of assay buffer containing 0.4 uM Biotin-labeled Histone H3 peptide substrate: ART-K(Me1)-QTARKSTGGKAPRKQLA-GGK(Biotin) SEQ ID NO:1 (AnaSpec 64355) and incubated for 1 hour at 25° C. Reactions were stopped by addition of 10 uL 1x LANCE Detection Buffer (PerkinElmer CR97-100) supplemented with 1.5 nM Eu-anti-unmodified H3K4 Antibody (PerkinElmer TRF0404), and 225 nM LANCE Ultra Streptavidin (PerkinElmer TRF102) along with 0.9 mM Tranylcypromine-HCl (Millipore 616431). After stopping the reactions plates were incubated for 30 minutes and read on a PHERAstar FS plate reader (BMG Labtech).", "data": [{"smiles": "COC(=O)N(C)c1ccc(-c2c(-c3ccc(C#N)cc3)nc(N3CCC(N(C)C)CC3)c3cncn23)cn1", "values": [{"measurement": "IC50", "value": "< 0.05", "unit": "µM"}]}, {"smiles": "COC(=O)N(C)c1ccc(-c2c(-c3ccc(C#N)cc3)nc(N3CCC(N(C)C)CC3)c3cncn23)cc1F", "values": [{"measurement": "IC50", "value": "< 0.05", "unit": "µM"}]}, {"smiles": "COC(=O)N(C)c1ccc(-c2c(-c3ccc(C#N)cc3)cc(OC[C@@H]3CCCN(C)C3)c3cncn23)cn1", "values": [{"measurement": "IC50", "value": "< 0.05", "unit": "µM"}]}]}
